The text below walks through data of patent US9176064B2, “Bisubstrate fluorescent probes for protein kinase CK2” (University of Tartu, priority 2012, dated 2015).

Where a SMILES comes first, the peptide text is derived from it. [ ]: non-standard residue; d: D form. The star is where a group is joined. X2 = CN(C)c1ccc2c(-c3ccc(C(=O)*)cc3C(=O)[O-])c3ccc(=[N+](C)C)cc-3oc2c1; X1 = O=C(CCCCCCCn1cnc2c(Br)c(Br)c(Br)c(Br)c21)*

The term Kd denotes the concentration at which binding is half-saturated. A word on the IC50: it is the concentration needed to halve the response being measured. Lower therefore signals higher potency.

In assay [1] the target is T1, catalytic subunit of CK2 (CK2α) (Homo sapiens, UniProt P68400).
T1 sequence (P68400 1-335 limits assumed): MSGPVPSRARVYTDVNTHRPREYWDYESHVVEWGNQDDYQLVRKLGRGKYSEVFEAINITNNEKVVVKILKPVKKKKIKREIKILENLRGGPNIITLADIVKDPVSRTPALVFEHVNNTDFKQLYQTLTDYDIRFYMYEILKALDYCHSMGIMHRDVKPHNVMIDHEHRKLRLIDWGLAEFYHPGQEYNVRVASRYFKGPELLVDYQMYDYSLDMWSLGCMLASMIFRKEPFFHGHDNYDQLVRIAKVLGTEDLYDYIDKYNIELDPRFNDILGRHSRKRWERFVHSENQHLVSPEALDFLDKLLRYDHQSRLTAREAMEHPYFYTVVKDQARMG
Briefly: Titration of fluorescent probe with CK2α (fluorescence anisotropy). The assay is classed as binding. In general terms: Fluorescence polarisation rises when a labelled molecule tumbles more slowly, as on binding a larger partner.
Procedure: The binding of the fluorescent probe of formula VI to the catalytic subunit of protein kinase CK2 (CK2α) was studied at 0.2 nM concentration of the probe and 2-fold dilutions of CK2α in a buffer containing 50 mM HEPES (pH 7.5), 150 mM NaCl, 5 mM DTT, 0.1 mM EDTA and 0.005% tween 20 in 20 μl volumes in 384-well microplate. […] The change in fluorescence anisotropy vs kinase concentration was plotted and KD value was calculated by the application of nonlinear regression analysis to the relationship: A=Af(1−X1)+AbX1, where X1=QX2/[1+X2(Q−1)], where X2={P+KD+kE0−[(P+KD+kE0)^2−4PkE0]^1/2}/2P where A is measured anisotropy, Af is the anisotropy of free probe, Ab is the anisotropy of the probe-CK2α complex, Q is the ratio of fluorescence quantum yield of the probe-CK2α complex and the free probe, P is the concentration of the fluorescent probe, E0 is the nominal concentration of the kinase, k is the fraction of active kinase in enzyme preparation and KD is the dissociation constant of the probe-CK2α complex. Q value of 1.1 was calculated by dividing the total fluorescence intensity of the complex with the total fluorescence intensity of the free probe.

Assay [2] deals with T1, catalytic subunit of CK2 (CK2α). Briefly: Competition experiment: displacement of fluorescent probe VI from CK2α. The assay is classed as binding. Conditions: for Kd: calculated from I50 and KD of the probe.
Assay [3] addresses holoenzyme of protein kinase CK2 (CK2α + CK2β) (Homo sapiens, UniProt P68400). The assay can be described thus: biochemical.
Procedure: The binding of the fluorescent probe to the holoenzyme of protein kinase CK2 was studied at 0.2 nM concentration of the probe, 2-fold dilutions of CK2α and 100 nM regulatory subunit of CK2 (CK2β) in a buffer containing 50 mM HEPES (pH 7.5), 150 mM NaCl, 5 mM DTT, 0.1 mM EDTA and 0.005% tween 20 in 20 μl volumes in 384-well microplate. […] The change in fluorescence anisotropy vs kinase concentration was plotted and KD-value was calculated by the application of nonlinear regression analysis to the relationship: A=Af(1−X1)+AbX1, where X1=QX2/[1+X2(Q−1)], where X2={P+KD+kE0−[(P+KD+kE0)^2−4PkE0]^1/2}/2P where A is measured anisotropy, Af is the anisotropy of free probe, Ab is the anisotropy of the probe-CK2 holoenzyme complex, Q is the ratio of fluorescence quantum yield of the probe-CK2 holoenzyme complex and the free probe, P is the concentration of the fluorescent probe, E0 is the nominal concentration of CK2α, k is the fraction of active kinase in enzyme preparation and KD is the dissociation constant of the probe-CK2 holoenzyme complex.
[4] abbreviates: CK2α 2 nM, fluorescent probe VI 3 nM.
[5] abbreviates: fluorescence anisotropy, HEPES pH 7.5, 30° C., probe X also by time gated luminescence, read-out: KD of probe-CK2α complex.
[6] abbreviates: CK2α 0.8 nM, fluorescent probe VI 0.5 nM.

holoenzyme of protein kinase CK2 (CK2α + CK2β), sequence (P68400 whole entry): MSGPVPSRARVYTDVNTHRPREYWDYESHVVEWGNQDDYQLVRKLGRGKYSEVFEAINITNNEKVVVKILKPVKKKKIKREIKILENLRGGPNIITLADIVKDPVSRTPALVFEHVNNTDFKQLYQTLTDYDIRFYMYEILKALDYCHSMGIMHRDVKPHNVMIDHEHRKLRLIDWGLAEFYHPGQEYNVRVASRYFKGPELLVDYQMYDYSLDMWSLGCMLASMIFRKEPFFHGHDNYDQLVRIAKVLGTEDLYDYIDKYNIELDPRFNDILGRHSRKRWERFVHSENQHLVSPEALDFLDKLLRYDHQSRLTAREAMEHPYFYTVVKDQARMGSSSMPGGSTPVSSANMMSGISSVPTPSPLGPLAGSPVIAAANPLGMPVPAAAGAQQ
holoenzyme of protein kinase CK2 (CK2α + CK2β), sequence (P67870 whole entry partner): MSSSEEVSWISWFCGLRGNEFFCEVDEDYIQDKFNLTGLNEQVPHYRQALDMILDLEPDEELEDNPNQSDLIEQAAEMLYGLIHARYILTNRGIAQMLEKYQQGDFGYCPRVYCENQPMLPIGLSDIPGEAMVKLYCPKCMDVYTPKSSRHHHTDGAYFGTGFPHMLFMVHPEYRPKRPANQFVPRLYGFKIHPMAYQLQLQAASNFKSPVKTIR

In assay [1], `CCN1/C(=C/C=C/C=C/C2=[N+](CC)c3ccc(S(=O)(=O)[O-])cc3C2(C)C)C(C)(CCCC(=O)NCCCC[C@H](NC(=O)[C@H](CC(=O)O)NC(=O)[C@H](CC(=O)O)NC(=O)[C@H](CC(=O)O)NC(=O)[C@H](CC(=O)O)NC(=O)[C@H](CC(=O)O)NC(=O)[C@@H](CC(=O)O)NC(=O)CCCCCCCn2ccc3ccc4n[se]nc4c32)C(=O)O)c2cc(S(=O)(=O)O)ccc21` (stereo partly shown) [probe X] registered a Kd of 10 nM.
TBBI-AcOH: in assay [2] (setting [4]), the IC50 is 11500 nM and the Kd was 1500 nM.
`CCN1/C(=C/C=C/C=C/C2=[N+](CC)c3ccc(S(=O)(=O)[O-])cc3C2(C)C)C(C)(CCCC(=O)NCCCC[C@H](NC(=O)[C@H](CC(=O)O)NC(=O)[C@H](CC(=O)O)NC(=O)[C@H](CC(=O)O)NC(=O)[C@H](CC(=O)O)NC(=O)[C@H](CC(=O)O)NC(=O)[C@@H](CC(=O)O)NC(=O)CCCCCCCn2cnc3c(I)c(I)c(I)c(I)c32)C(=O)O)c2cc(S(=O)(=O)O)ccc21` (stereo partly shown) [probe VIII]: in assay [1] (setting [5]), the Kd was determined as 0.4 nM.
Turning to `CCN1/C(=C/C=C/C=C/C2=[N+](CC)c3ccc(S(=O)(=O)[O-])cc3C2(C)C)C(C)(CCCC(=O)NCCCC[C@H](NC(=O)[C@H](CC(=O)O)NC(=O)[C@H](CC(=O)O)NC(=O)[C@H](CC(=O)O)NC(=O)[C@H](CC(=O)O)NC(=O)[C@H](CC(=O)O)NC(=O)[C@@H](CC(=O)O)NC(=O)CCCCCCCn2cnc3c(Br)c(Br)c(Br)c(Br)c32)C(=O)O)c2cc(S(=O)(=O)O)ccc21` (stereo partly shown) [probe VI], the figures for the Kd in assay [3] and in assay [1] (setting [5]) were 0.2 nM and 0.4 nM, respectively.
For TIBI-AcOH, in assay [2] (setting [6]), the IC50 was found to be 390 nM and the Kd is 122 nM.
Take `CN(C)c1ccc2c(-c3ccc(C(=O)NCCCC[C@H](NC(=O)[C@H](CC(=O)O)NC(=O)[C@H](CC(=O)O)NC(=O)[C@H](CC(=O)O)NC(=O)[C@H](CC(=O)O)NC(=O)[C@H](CC(=O)O)NC(=O)[C@@H](CC(=O)O)NC(=O)CCCCCCCn4cnc5c(Br)c(Br)c(Br)c(Br)c54)C(=O)O)cc3C(=O)[O-])c3ccc(=[N+](C)C)cc-3oc2c1` [probe VII] (X1-[dD]DDDDDK(X2)-OH): the Kd in assay [1] (setting [5]) stood at 0.4 nM.
The same measure, in the same setting: to `CCN1/C(=C/C=C/C=C/C2=[N+](CC)c3ccc(S(=O)(=O)[O-])cc3C2(C)C)C(C)(CCCC(=O)NCCCC[C@H](NC(=O)[C@H](CC(=O)O)NC(=O)[C@H](CC(=O)O)NC(=O)[C@H](CC(=O)O)NC(=O)[C@H](CC(=O)O)NC(=O)[C@H](CC(=O)O)NC(=O)[C@H](CC(=O)O)NC(=O)CCCCCCCCOc2nc3cc(C(=O)O)ccc3c3cnccc23)C(=O)O)c2cc(S(=O)(=O)O)ccc21` (stereo partly shown) [probe IX] belongs 0.02 nM.
